Assays:
[1] = system: Arabidopsis wildtype and ibr10, ech2, ech2ibr10, or acx1acx5 mutants; assay type: in vivo, Arabidopsis thaliana; conditions: roots treated with 1 μM ascr #18
Protocol: FIG. 3A provides a comparison of peroxisomal β-oxidation (pβo) pathways and associated enzymes involved in the conversion of indole-3-butyric acid (IBA)-to-indole acetic acid (IAA) in Arabidopsis and ascaroside biosynthesis in C. elegans. FIG. 3B provides LC-MS analysis of Arabidopsis seedlings treated with 1 μM ascr #18 for 24 hours before sample extraction, comparing ascr #9 production in wildtype and ibr10, ech2, ech2ibr10, or acx1acx5 mutants. FIG. 3C provides a comparison of ascaroside abundances in Arabidopsis wildtype and acx1acx5 roots treated with 1 μM ascr #18. Data are averages±SEM (n=5); n.d.=not detected. FIG. 3D provides RNAseq analysis of ten day-old Arabidopsis wildtype and acx1acx5 mutant roots, plotted as transcript abundance. Data are averages±s.d (n=6).
Arabidopsis thaliana mutant genotypes in the Col-0 background, ibr10-1, ech2-1, ibr10-1ech2-1, and acx1-2acx5-1, were obtained from Rice University (Houston, TX) (Strader, et al. (2011) Plant Cell 23:984-999; Adham, et al. (2005) Plant J. 41:859-874).
To test whether ascr #18 is metabolized via pβo in plants, Arabidopsis mutants impaired in key enzymes of this pathway were analyzed (FIG. 3B). […] In contrast, two other putative po genes, ibr10 and ech2, a putative enoyl-CoA hydratases (Strader, et al. (2011) Plant Cell 23:984-999; Adham, et al. (2005) Plant J. 41:859-874; Zolman, et al. (2008) Genetics 180(1): 237-51), are not required for ascr #18 metabolism in Arabidopsis. ACXs participate in the […] step of pβo by introducing α,β-unsaturation in the side-chain (Von Reuss, et al. (2012) J. Am. Chem. Soc. 134:1817-1824; Strader, et al. (2011) Plant Cell 23:984-999). […] These observations indicate that ascr #18 metabolism in plants into shorter-chained ascarosides proceeds via pβo, and that ACX1 and/or ACX5 are strictly required for chain shortening of ascr #10, whereas the first chain-shortening step from ascr #18 to ascr #10 may involve additional acyl-CoA oxidases.

[2] = system: Arabidopsis root exudates; assay: LC-MS of root exudates of ascr #18-treated Arabidopsis seedlings; assay type: in vivo, Arabidopsis thaliana; conditions: for secretion of ascr #18 metabolites via roots: ascr #18-treated wildtype, 6 hours treatment
Protocol: (§1) Data are average±SEM (n=6), n.d.=not detected. […] Exudates from approximately 40 seedlings were collected in distilled water and pooled. Abundances of ascarosides are shown as the peak area, as measured by LC-MS. Data are average±SEM (n=3); n.d.=not detected. FIGS. 5C and 5D show the relative abundances of ascarosides in root exudates of eight-day old tomato seedlings treated with 10 nM (FIG. 5C) or 1000 nM (FIG. 5D) ascr #18 for 6 hours. Exudates from approximately 10 seedlings were collected in distilled water and pooled. Abundances of ascarosides are shown as the peak area, as measured by LC-MS. Data are average±SEM (n=3); n.d.=not detected. FIG. 5E provides the relative abundances of ascr #10, ascr #1, and ascr #9 in the growth media of eight-day old tomato seedlings supplemented with 1 μM ascr #18. Ten-gram media samples were collected at different time points over a 48 hour period for metabolome extraction. Abundances of ascarosides are shown as the peak area, as measured by LC-MS.
(§2) To test this possibility, root-secreted metabolites of ascr #18- and mock-treated Arabidopsis were compared (FIG. 5A). For this experiment, 10-day old Arabidopsis seedlings were treated in growth media supplemented with ascr #18 for 6 hours prior to collection of exudates from roots submerged in water. […] Analogous results were obtained in experiments with tomato roots (FIG. 5C, 5D).

tomato root exudates = assay: LC-MS of root exudates and growth media of ascr #18-treated tomato seedlings; assay type: in vivo, Solanum lycopersicum
Protocol: as §1, §2

SMILES	ascaroside levels in ascr #18-treated acx1acx5 mutant compared with wildtype [1]	secretion of ascr #18 metabolites via roots [2]	relative abundance among root-excreted ascr #18 metabolites ([2]; Arabidopsis)	ascarosides in root exudates of acx1acx5 ([2]; acx1acx5 seedlings, 10 nM ascr #18 for 6 hours)	relative abundance among root-excreted ascr #18 metabolites (tomato root exudates)
C[C@H](CCCCC(=O)O)O[C@@H]1O[C@@H](C)[C@H](O)C[C@H]1O [ascr #1]	not detected	secretion			
C[C@H](CCCCCCC(=O)O)O[C@@H]1O[C@@H](C)[C@H](O)C[C@H]1O [ascr #10]	smaller amounts	secretion	least abundant	detected	least abundant
